{"source": "patent US4791139A", "about": "“Diphenyl ether derivatives and their use as insecticides” (Imperial Chemical Industries PLC, priority 1986, dated 1988)", "data": [{"tested_on": "Blattella germanica (cockroach nymphs)", "assay": "Residual test, cockroach nymphs (BG), Plastic pot", "format": "in vivo", "details": "72 h, 250 ppm, 3 days, read-out: BG grading of mortality", "outline": "(§1)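 Insects placed on host plant or food medium; medium and/or insects treated with aqueous preparations of 100 to 500 ppm Product by weight, made from acetone solutions diluted in water with 0.1% wetting agent. Mortality was then assessed, usually after one to seven days.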", "units": {"mortality at 250 ppm": "%"}, "values": [{"smiles": "FC(F)(F)Oc1ccc(C(=CCCc2cccc(Oc3ccccc3)c2)C(F)(F)F)cc1", "note": "[Compound 7, 5-(3-phenoxyphenyl)-2-(4-trifluoromethoxyphenyl)-1,1,1-trifluoropent-2-ene]", "mortality at 250 ppm": "80 to 100"}, {"smiles": "CCOc1ccc(/C(=C\\C=C/c2ccc(F)c(Oc3ccccc3)c2)C(F)(F)F)cc1", "note": "[Compound 37, 1,1,1-trifluoro-2-(4-ethoxyphenyl)-5-(4-fluoro-3-phenoxyphenyl)penta-2,4-diene]", "mortality at 250 ppm": "50 to 79"}]}, {"tested_on": "Musca domestica (houseflies - adults)", "assay": "Knockdown test, houseflies - adults (MD/KD), Cotton wool/sugar", "format": "in vivo", "details": "250 ppm, 4 hours, read-out: MD/KD grading of knockdown", "outline": "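Product was dissolved in acetone and diluted with water containing 0.1% wetting agent to 100–500 ppm. The flies and/or their food medium were treated with the preparation. Mortality was scored 1–7 days after treatment, with an additional knockdown assessment for houseflies.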", "units": {"pest or weed control at 250 ppm": "%"}, "values": [{"smiles": "FC(F)(F)Oc1ccc(C(=CCCc2cccc(Oc3ccccc3)c2)C(F)(F)F)cc1", "note": "[Compound 7, 5-(3-phenoxyphenyl)-2-(4-trifluoromethoxyphenyl)-1,1,1-trifluoropent-2-ene]", "pest or weed control at 250 ppm": "< 50"}, {"smiles": "CCOc1ccc(/C(=C\\C=C/c2ccc(F)c(Oc3ccccc3)c2)C(F)(F)F)cc1", "note": "[Compound 37, 1,1,1-trifluoro-2-(4-ethoxyphenyl)-5-(4-fluoro-3-phenoxyphenyl)penta-2,4-diene]", "pest or weed control at 250 ppm": "< 50"}]}, {"tested_on": "Nilaparvata lugens (brown plant hopper - nymphs)", "assay": "Contact test, brown plant hopper - nymphs (NL), Rice plant", "format": "in vivo", "details": "72 h, 250 ppm, 3 days, read-out: NL grading of mortality", "outline": "as §1", "units": {"mortality at 250 ppm": "%"}, "values": [{"smiles": "FC(F)(F)Oc1ccc(C(=CCCc2cccc(Oc3ccccc3)c2)C(F)(F)F)cc1", "note": "[Compound 7, 5-(3-phenoxyphenyl)-2-(4-trifluoromethoxyphenyl)-1,1,1-trifluoropent-2-ene]", "mortality at 250 ppm": "80 to 100"}, {"smiles": "CCOc1ccc(/C(=C\\C=C/c2ccc(F)c(Oc3ccccc3)c2)C(F)(F)F)cc1", "note": "[Compound 37, 1,1,1-trifluoro-2-(4-ethoxyphenyl)-5-(4-fluoro-3-phenoxyphenyl)penta-2,4-diene]", "mortality at 250 ppm": "< 50"}]}, {"tested_on": "Tetranychus urticae (spider mites - adult)", "assay": "Contact test, spider mites - adult (TUa), French bean leaf", "format": "in vivo", "details": "72 h, 250 ppm, 3 days, read-out: TUA grading of mortality", "outline": "as §1", "units": {"mortality at 250 ppm": "%"}, "values": [{"smiles": "FC(F)(F)Oc1ccc(C(=CCCc2cccc(Oc3ccccc3)c2)C(F)(F)F)cc1", "note": "[Compound 7, 5-(3-phenoxyphenyl)-2-(4-trifluoromethoxyphenyl)-1,1,1-trifluoropent-2-ene]", "mortality at 250 ppm": "80 to 100"}, {"smiles": "CCOc1ccc(/C(=C\\C=C/c2ccc(F)c(Oc3ccccc3)c2)C(F)(F)F)cc1", "note": "[Compound 37, 1,1,1-trifluoro-2-(4-ethoxyphenyl)-5-(4-fluoro-3-phenoxyphenyl)penta-2,4-diene]", "mortality at 250 ppm": "< 50"}]}, {"tested_on": "Myzus persicae (aphids)", "assay": "Contact test, aphids (MP), Chinese Cabbage leaf", "format": "in vivo", "details": "72 h, 250 ppm, 3 days, read-out: MP grading of mortality", "outline": "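Aphids on a host plant and/or the plant itself were treated with 100–500 ppm of product, applied from acetone diluted in water containing 0.1% SYNPERONIC NX wetting agent. Mortality was scored usually one to seven days after treatment.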", "units": {"mortality at 250 ppm": "%"}, "values": [{"smiles": "FC(F)(F)Oc1ccc(C(=CCCc2cccc(Oc3ccccc3)c2)C(F)(F)F)cc1", "note": "[Compound 7, 5-(3-phenoxyphenyl)-2-(4-trifluoromethoxyphenyl)-1,1,1-trifluoropent-2-ene]", "mortality at 250 ppm": "80 to 100"}, {"smiles": "CCOc1ccc(/C(=C\\C=C/c2ccc(F)c(Oc3ccccc3)c2)C(F)(F)F)cc1", "note": "[Compound 37, 1,1,1-trifluoro-2-(4-ethoxyphenyl)-5-(4-fluoro-3-phenoxyphenyl)penta-2,4-diene]", "mortality at 250 ppm": "< 50"}]}, {"tested_on": "Chilo partellus (Maize stemborer - larvae)", "assay": "Residual test, Maize stemborer - larvae (CP), Oilseed rape", "format": "in vivo", "details": "72 h, 250 ppm, 3 days, read-out: CP grading of mortality", "experimental": "The activity of the Product was determined using a variety of insect pests. The Product was used in the form of liquid preparations containing from 100 to 500 parts per million (ppm) by weight of the Product. The preparations were made by dissolving the Product in acetone and diluting the solutions with water containing 0.1% by weight of a wetting agent sold under the trade name \"SYNPERONIC\" NX until the liquid preparations contained the required concentration of the Product. \"SYNPERONIC\" is a Registered Trade Mark.\nThe test procedure adopted with regard to each pest was basically the same and comprised supporting a number of the pests on a medium which was usually a host plant or a foodstuff on which the pests feed, and treating either or both the pests and the medium with the preparations. The mortality of the pests was then assessed at periods usually varying from one to seven days after the treatment.\nThe results of the tests are given in Table III for each of the Products, at the rate in parts per million given in the second column as a grading of mortality designated as A, B or C wherein A indicates 80-100% mortality or knockdown (70-100% for Meloidogyne incognita), B indicates 50-79% mortality knockdown or knockdown (50-69% for Meloidogyne incognita) and C indicates less than 50% mortality or knockdown.\nIn Table III the pest organism used is designated by a letter code and the pests species, the support medium or food, and the type and duration of test is given in Table II.\n(Maize stemborer - larvae)", "units": {"mortality at 250 ppm": "%"}, "values": [{"smiles": "FC(F)(F)Oc1ccc(C(=CCCc2cccc(Oc3ccccc3)c2)C(F)(F)F)cc1", "note": "[Compound 7, 5-(3-phenoxyphenyl)-2-(4-trifluoromethoxyphenyl)-1,1,1-trifluoropent-2-ene]", "mortality at 250 ppm": "80 to 100"}, {"smiles": "CCOc1ccc(/C(=C\\C=C/c2ccc(F)c(Oc3ccccc3)c2)C(F)(F)F)cc1", "note": "[Compound 37, 1,1,1-trifluoro-2-(4-ethoxyphenyl)-5-(4-fluoro-3-phenoxyphenyl)penta-2,4-diene]", "mortality at 250 ppm": "< 50"}]}, {"tested_on": "Musca domestica (houseflies - adults)", "assay": "Contact test, houseflies - adults (MD), Cotton wool/sugar", "format": "in vivo", "details": "24 h, 250 ppm, 1 day, read-out: MD grading of mortality", "outline": "as §1", "units": {"mortality at 250 ppm": "%"}, "values": [{"smiles": "FC(F)(F)Oc1ccc(C(=CCCc2cccc(Oc3ccccc3)c2)C(F)(F)F)cc1", "note": "[Compound 7, 5-(3-phenoxyphenyl)-2-(4-trifluoromethoxyphenyl)-1,1,1-trifluoropent-2-ene]", "mortality at 250 ppm": "50 to 79"}, {"smiles": "CCOc1ccc(/C(=C\\C=C/c2ccc(F)c(Oc3ccccc3)c2)C(F)(F)F)cc1", "note": "[Compound 37, 1,1,1-trifluoro-2-(4-ethoxyphenyl)-5-(4-fluoro-3-phenoxyphenyl)penta-2,4-diene]", "mortality at 250 ppm": "< 50"}]}, {"tested_on": "Diabrotica balteata (rootworm larvae)", "assay": "Residual test, rootworm larvae (DB), Filter paper/maize seed", "format": "in vivo", "details": "72 h, 250 ppm, 3 days, read-out: DB grading of mortality", "outline": "as §1", "units": {"mortality at 250 ppm": "%"}, "values": [{"smiles": "FC(F)(F)Oc1ccc(C(=CCCc2cccc(Oc3ccccc3)c2)C(F)(F)F)cc1", "note": "[Compound 7, 5-(3-phenoxyphenyl)-2-(4-trifluoromethoxyphenyl)-1,1,1-trifluoropent-2-ene]", "mortality at 250 ppm": "80 to 100"}, {"smiles": "CCOc1ccc(/C(=C\\C=C/c2ccc(F)c(Oc3ccccc3)c2)C(F)(F)F)cc1", "note": "[Compound 37, 1,1,1-trifluoro-2-(4-ethoxyphenyl)-5-(4-fluoro-3-phenoxyphenyl)penta-2,4-diene]", "mortality at 250 ppm": "< 50"}]}, {"tested_on": "Tetranychus urticae (spider mites - ova)", "assay": "Contact test, spider mites - ova (TUe), French bean leaf", "format": "in vivo", "details": "144 h, 250 ppm, 6 days, read-out: TUE grading of mortality", "outline": "as §1", "units": {"mortality at 250 ppm": "%"}, "values": [{"smiles": "FC(F)(F)Oc1ccc(C(=CCCc2cccc(Oc3ccccc3)c2)C(F)(F)F)cc1", "note": "[Compound 7, 5-(3-phenoxyphenyl)-2-(4-trifluoromethoxyphenyl)-1,1,1-trifluoropent-2-ene]", "mortality at 250 ppm": "80 to 100"}, {"smiles": "CCOc1ccc(/C(=C\\C=C/c2ccc(F)c(Oc3ccccc3)c2)C(F)(F)F)cc1", "note": "[Compound 37, 1,1,1-trifluoro-2-(4-ethoxyphenyl)-5-(4-fluoro-3-phenoxyphenyl)penta-2,4-diene]", "mortality at 250 ppm": "< 50"}]}, {"tested_on": "Heliothis virescens (tobacco budworm - larvae)", "assay": "Residual test, tobacco budworm - larvae (HV), Cotton leaf", "format": "in vivo", "details": "72 h, read-out: HV grading of mortality", "outline": "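Products applied as acetone solutions diluted in water with 0.1% wetting agent, at 100–500 ppm; pests on host plant or food, with pests and/or medium treated. Mortality or knockdown scored 1–7 days after treatment and graded A (80–100%), B (50–79%) or C (<50%).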", "units": {"mortality at 250 ppm": "%"}, "values": [{"smiles": "FC(F)(F)Oc1ccc(C(=CCCc2cccc(Oc3ccccc3)c2)C(F)(F)F)cc1", "note": "[Compound 7, 5-(3-phenoxyphenyl)-2-(4-trifluoromethoxyphenyl)-1,1,1-trifluoropent-2-ene]", "mortality at 250 ppm": "80 to 100"}, {"smiles": "CCOc1ccc(/C(=C\\C=C/c2ccc(F)c(Oc3ccccc3)c2)C(F)(F)F)cc1", "note": "[Compound 37, 1,1,1-trifluoro-2-(4-ethoxyphenyl)-5-(4-fluoro-3-phenoxyphenyl)penta-2,4-diene]", "mortality at 250 ppm": "< 50"}]}, {"tested_on": "Meloidogyne incognita (Tomato root knot eelworm - larvae)", "assay": "Residual test, Tomato root knot eelworm - larvae (MI), Semi in-vitro", "format": "in vivo", "details": "168 h, rate 250 ppm, application rate is half that recorded, 7 days, read-out: MI grading of mortality", "units": {"mortality at 125 µg/mL": "%"}, "values": [{"smiles": "FC(F)(F)Oc1ccc(C(=CCCc2cccc(Oc3ccccc3)c2)C(F)(F)F)cc1", "note": "[Compound 7, 5-(3-phenoxyphenyl)-2-(4-trifluoromethoxyphenyl)-1,1,1-trifluoropent-2-ene]", "mortality at 125 µg/mL": "< 50"}, {"smiles": "CCOc1ccc(/C(=C\\C=C/c2ccc(F)c(Oc3ccccc3)c2)C(F)(F)F)cc1", "note": "[Compound 37, 1,1,1-trifluoro-2-(4-ethoxyphenyl)-5-(4-fluoro-3-phenoxyphenyl)penta-2,4-diene]", "mortality at 125 µg/mL": "< 50"}]}]}
